Test results as given in US20240279239A1, “COMPOUNDS AND METHODS FOR MODULATING SPLICING” (REMIX THERAPEUTICS INC., priority 2020, published 2024).
Where a name gives a salt, the structure may show the parent alone. Read-outs that look alike come from different tables or passages of the source.

Experiments:
Assay type in all cases: cell-based
HTT [1] = assay: RT-qPCR splicing assay for HTT mRNA isoforms (canonical junction CJ and alternative junction AJ); details: A673 or K562 cell line, 24 hours treatment
Description: (§1) Example 44: Exemplary splicing assay for monitoring expression levels of splice variants Compounds described herein were used to modulate RNA transcript abundance in cells. The expression of a target mRNA was measured by detecting the formation of an exon-exon junction in the canonical transcript (CJ). A compound mediated exon-inclusion event was detected by observing an increase in formation of a new junction with an alternative exon (AJ). Real-time qPCR assays were used to detect these splicing switches and interrogate the potency of various compounds towards different target genes. A high-throughput real time quantitative PCR (RT-qPCR) assay was developed to measure these two isoforms of the mRNA (CJ and AJ) for an exemplary gene, HTT, together with a control housekeeping gene, GAPDH or GUSB or PPIA, used for normalization. Briefly, the A673 or K562 cell line was treated with various compounds described herein (e.g., compounds of Formula (I)). After treatment, the levels of the HTT mRNA targets were determined from each sample of cell lysate by cDNA synthesis followed by qPCR.
(§2) The A673 cell line was cultured in DMEM with 10% FBS. Cells were diluted with full growth media and plated in a 96-well plate (15,000 cells in 100 µl media per well). The plate was incubated at 37° C. with 5% CO2 for 24 hours to allow cells to adhere. An 11-point 3-fold serial dilution of the compounds was made in DMSO then diluted in media in an intermediate plate. Compounds were transferred from the intermediate plate to the cell plate with the top dose at a final concentration of 10 uM in the well. Final DMSO concentration was kept at or below 0.25%. The cell plate was returned to the incubator at 37° C. with 5% CO2 for an additional 24 hours.
(§3) The K562 cell line was cultured in IMDM with 10% FBS. For K562, cells were diluted with full growth media and plated in either a 96-well plate (50,000 cells in 50 uL media per well) or a 384-well plate (8,000-40,000 cells in 45 uL media per well). An 11-point 3-fold serial dilution of the compounds were made in DMSO then diluted in media in an intermediate plate. Compound was transferred from the intermediate plate to the cell plate with the top dose at a final concentration of 10 uM in the well. Final DMSO concentration was kept at or below 0.25%. Final volume was 100 uL for 96-well plate and 50 uL for 384-well plate. The cell plate was then placed in an incubator at 37° C. with 5% CO2 for 24 hours.
(§4) The cells were then gently washed with 50 uL-100 uL cold PBS before proceeding to addition of lysis buffer. 30 uL-50 uL of room temperature lysis buffer with DNAse I (and optionally RNAsin) was added to each well. Cells were shaken/mixed thoroughly at room temperature for 5-10 minutes for lysis to take place and then 3 uL-5 uL of room temperature stop solution was added and wells were shaken/mixed again. After 2-5 minutes, the cell lysate plate was transferred to ice for RT-qPCR reaction setup. The lysates could also be frozen at ˜80° C. for later use.
(§5) In some cases, a direct lysis buffer was used. An appropriate volume of 3× lysis buffer (10 mM Tris, 150 mM NaCl, 1.5%-2.5% Igepal and 0.1-1 U/uL RNAsin, pH 7.4) was directly added to either K562 or A673 cells in media and mixed by pipetting 3 times. The plates were then incubated at room temperature with shaking/rocking for 20-50 minutes to allow for lysis to take place. After this time, the cell lysate plate was transferred to ice to set up for the RT-qPCR reactions. The lysates could also be frozen at −80° C. for later use.
(§6) To set up 10 uL RT-qPCR reactions, cell lysates were transferred to 384-well qPCR plates containing the master mix according to the table below. The plates were sealed, gently vortexed, and spun down before the run. The volumes were adjusted accordingly in some instances where the reaction was carried in 20 uL. The table below summarizes the components of the RT-qPCR reactions: […]

HTT [2] = assay: RT-qPCR canonical junction panel assay, HTT; details: gene panel, read-out: HTT IC50 (decrease in CJ mRNA levels)
Description: as §1, §2, §3, §4, §5, §6

Target C = assay: RT-qPCR canonical junction panel assay, Target C; details: gene panel, read-out: Target C IC50 (decrease in CJ mRNA levels)
Description: as §1, §2, §3, §4, §5, §6

SMN2 = assay: RT-qPCR canonical junction panel assay, SMN2; details: gene panel, read-out: SMN2 IC50 (decrease in CJ mRNA levels)
Description: as §1, §2, §3, §4, §5, §6

[3] = decrease in CJ mRNA levels, read-out: HTT CJ AC50
[4] = increase in AJ mRNA, read-out: HTT AJ AC50

Compound	IC50 (HTT [2]) [nM]	IC50 (Target C) [nM]	IC50 (SMN2) [nM]	AC50 (HTT [1]; [3]) [nM]	AC50 (HTT [1]; [4]) [nM]
Cc1cn2cc(-c3nn4c(=O)cc(N5CCN(C)C6(CC6)C5)nc4s3)cc(F)c2n1 [Compound 218, 2-(8-fluoro-2-methylimidazo[1,2-α]pyridin-6-yl)-7-(4-methyl-4,7-diazaspiro[2.5]octan-7-yl)-5H-[1,3,4]thiadiazolo[3,2-α]pyrimidin-5-one]	1000 to 10000	1000 to 10000	1000 to 10000	1000 to 10000	1000 to 10000
Cn1cc2cc(-n3cnc4nc(N5CCNCC5)sc4c3=O)ccc2n1 [Compound 225, 6-(2-methyl-2H-indazol-5-yl)-2-(piperazin-1-yl)thiazolo[4,5-d]pyrimidin-7(6H)-one]	> 10000	> 10000	> 10000	> 10000	> 10000
Cc1cn2cc(-n3cnc4nc(N5CCNCC5)sc4c3=O)cc(F)c2n1 [Compound 226, 6-(8-fluoro-2-methylimidazo[1,2-α]pyridin-6-yl)-2-(piperazin-1-yl)thiazolo[4,5-d]pyrimidin-7(6H)-one]	100 to 1000	100 to 1000	100 to 1000	100 to 1000	100 to 1000
Cc1cn2cc(-n3cnc4nc(N(C)C5CC(C)(C)NC(C)(C)C5)sc4c3=O)cc(F)c2n1 [Compound 227, 6-(8-fluoro-2-methylimidazo[1,2-α]pyridin-6-yl)-2-(methyl(2,2,6,6-tetramethylpiperidin-4-yl)amino)thiazolo[4,5-d]pyrimidin-7(6H)-one, formate]	> 10000	> 10000	> 10000	> 10000	> 10000
Cc1cn2cc(-n3cnc4nc(N5CCN(C)CC5)sc4c3=O)cc(F)c2n1 [Compound 228, 6-(8-fluoro-2-methylimidazo[1,2-α]pyridin-6-yl)-2-(4-methylpiperazin-1-yl)thiazolo[4,5-d]pyrimidin-7(6H)-one]	1000 to 10000	1000 to 10000	1000 to 10000	1000 to 10000	1000 to 10000
Cc1cn2cc(-n3cnc4nc(N5CCNCC5)sc4c3=O)cc(C(F)(F)F)c2n1 [Compound 229, 6-(2-methyl-8-(trifluoromethyl)imidazo[1,2-α]pyridin-6-yl)-2-(piperazin-1-yl)thiazolo[4,5-d]pyrimidin-7(6H)-one]	> 10000	> 10000	> 10000	> 10000	> 10000
Cc1cn2cc(-n3cnc4nc(N5CCN(C)CC5)sc4c3=O)cc(C(F)(F)F)c2n1 [Compound 230, 6-(2-methyl-8-(trifluoromethyl)imidazo[1,2-α]pyridin-6-yl)-2-(4-methylpiperazin-1-yl)thiazolo[4,5-d]pyrimidin-7(6H)-one]	> 10000	> 10000	> 10000	> 10000	> 10000
Cc1cn2nc(-c3nc4ncn(C5CCNCC5)c(=O)c4s3)cc(C)c2n1 [Compound 231, 2-(2,8-dimethylimidazo[1,2-b]pyridazin-6-yl)-6-(piperidin-4-yl)thiazolo[4,5-d]pyrimidin-7(6H)-one]	100 to 1000	1000 to 10000	1000 to 10000	100 to 1000	100 to 1000

Further lines, with some results ahead:

IC50 (HTT [2]) [nM]	IC50 (Target C) [nM]	IC50 (SMN2) [nM]	Compound	AC50 (HTT [1]; [3]) [nM]	AC50 (HTT [1]; [4]) [nM]
< 100	100 to 1000	< 100	Cc1cn2cc(-c3nc4ncn(C5CCNCC5)c(=O)c4s3)cc(F)c2n1 [Compound 232, 2-(8-fluoro-2-methylimidazo[1,2-α]pyridin-6-yl)-6-(piperidin-4-yl)thiazolo[4,5-d]pyrimidin-7(6H)-one]	< 100	< 100
< 100	100 to 1000	< 100	Cc1cc(-c2nc3ncn(C4CCNCC4)c(=O)c3s2)cc2cn(C)nc12 [Compound 233, 2-(2,7-dimethyl-2H-indazol-5-yl)-6-(piperidin-4-yl)thiazolo[4,5-d]pyrimidin-7(6H)-one]	< 100	< 100
100 to 1000	1000 to 10000	< 100	Cc1cc(-c2nc3ncn(C4CCN(C)CC4)c(=O)c3s2)cc2cn(C)nc12 [Compound 234, 2-(2,7-dimethyl-2H-indazol-5-yl)-6-(1-methylpiperidin-4-yl)thiazolo[4,5-d]pyrimidin-7(6H)-one]	100 to 1000	100 to 1000
< 100	100 to 1000	< 100	Cc1cn2cc(-c3cc4ncn(C5CCNCC5)c(=O)c4s3)cc(F)c2n1 [Compound 235, 6-(8-fluoro-2-methylimidazo[1,2-α]pyridin-6-yl)-3-(piperidin-4-yl)thieno[3,2-d]pyrimidin-4(3H)-one]	< 100	< 100
< 100	100 to 1000	< 100	Cc1cc(-c2cc3ncn(C4CCNCC4)c(=O)c3s2)cc2cn(C)nc12 [Compound 236, 6-(2,7-dimethyl-2H-indazol-5-yl)-3-(piperidin-4-yl)thieno[3,2-d]pyrimidin-4(3H)-one]	< 100	100 to 1000
100 to 1000	1000 to 10000	< 100	Cc1cc(-c2cc3ncn(C4CCN(C)CC4)c(=O)c3s2)cc2cn(C)nc12 [Compound 237, 6-(2,7-dimethyl-2H-indazol-5-yl)-3-(1-methylpiperidin-4-yl)thieno[3,2-d]pyrimidin-4(3H)-one]	100 to 1000	100 to 1000
100 to 1000	1000 to 10000	< 100	Cc1cn2nc(-c3cc4ncn(C5CCNCC5)c(=O)c4s3)cc(C)c2n1 [Compound 238, 6-(2,8-dimethylimidazo[1,2-b]pyridazin-6-yl)-3-(piperidin-4-yl)thieno[3,2-d]pyrimidin-4(3H)-one]	100 to 1000	100 to 1000
1000 to 10000	> 10000	< 100	Cc1cn2nc(-c3cc4ncn(C5CCN(C)CC5)c(=O)c4s3)cc(C)c2n1 [Compound 239, 6-(2,8-dimethylimidazo[1,2-b]pyridazin-6-yl)-3-(1-methylpiperidin-4-yl)thieno[3,2-d]pyrimidin-4(3H)-one]	1000 to 10000	1000 to 10000
